Patent publication US9650366B2, “Heterocycle-substituted pyridyl benzothiophenes as kinase inhibitors” (Allergan, Inc., priority 2014, dated 2017)

What was measured:
Type in all cases: biochemical
human GST-PKR = human GST-PKR (Homo sapiens (Human), UniProt P19525); assay: PKR KinaseGlo Assay; conditions: recombinant human GST-PKR, 6.6 uM ATP
Procedure: Commercially available recombinant human GST-PKR (SignalChem, Canada; 1.5 uM-2 uM stock) is diluted to 500 nM in assay buffer (20 mM Tris-HCl, pH 7.2, 10 mM KCl, 10 mM MgCl2, 10% glycerol). Preactivated PKR is dispensed to 384/96-well black plates at 3.125/12.5 uls/well using the liquid handler Janus. Appropriate dilutions of inhibitors are added to 384/96-well plate followed by 6.6 uM ATP (final) and incubated for 10 minutes at room temperature. The remaining ATP/well is determined by adding 6.25/25 uls/well Kinase-Glo assay mix (Promega) and luminescence is measured on EnVision luminescence plate reader (integration time, 0.2 sec; Perkin-Elmer, Massachusetts, USA). The % inhibition for the compounds is calculated using ATP only (100% inhibition) and PKR+ATP (0% inhibition). IC50 values are determined by plotting % activity versus inhibitor concentration. Curves are fitted using Activity base XLfit (IDBS, UK) using the formula—
4 Parameter Logistic Model
fit=(A+((B−A)/(1+(10^((C−x)*D))))) inv=(C−(log(((B−A)/(y−A))−1)/D)) res=(y−fit)

PDGFRβ = PDGFRβ (Homo sapiens (Human), UniProt P09619); assay: PDGFRβ Kinase Assay; conditions: purified cytoplasmic domain PDGFR-b protein, 36 μM ATP
Procedure: Biochemical PDGFRβ kinase assays were performed in 96 well microtiter plates that were coated overnight with 75 μg of poly-Glu-Tyr (4:1) in 10 mM Phosphate Buffered Saline (PBS), pH 7.4. The coated plates were washed with 2 mls per well PBS+0.05% Tween-20 (PBS-T), blocked by incubation with PBS containing 1% BSA, then washed with 2 mls per well PBS-T prior to starting the reaction. Reactions were carried out in 100 μL reaction volumes containing 36 μM ATP in kinase buffer (50 mM Hepes buffer pH 7.4, 20 mM MgCl2, 0.1 mM MnCl2 and 0.2 mM Na3VO4). Test compounds were reconstituted in 100% DMSO and added to the reaction to give a final DMSO concentration of 5%. Reactions were initiated by the addition 20 ul per well of kinase buffer containing 200-300 ng purified cytoplasmic domain PDGFR-b protein (Millipore). Following a 60 minute incubation at 30° C., the reactions were washed 2 mls per well PBS-T. 100 μl of a monoclonal anti-phosphotyrosine antibody-peroxidase conjugate diluted 1:10,000 in PBS-T was added to the wells for 30 minutes. […] The reaction was terminated by the addition of 100 μl of 2.5N H2SO4 to each well and read using a microplate ELISA reader set at 492 nm. IC50 values for compound inhibition were calculated directly from graphs of optical density (arbitrary units) versus compound concentration following subtraction of blank values.

VEGFR2 (KDR) = VEGFR2 (KDR) (Homo sapiens (Human), UniProt P35968); assay: VEGFR2 Kinase Assay; conditions: purified cytoplasmic domain KDR protein, 2.7 μM ATP
Procedure: Biochemical KDR kinase assays were performed in 96 well microtiter plates that were coated overnight with 75 μg/well of poly-Glu-Tyr (4:1) in 10 mM Phosphate Buffered Saline (PBS), pH 7.4. The coated plates were washed with 2 mls per well PBS+0.05% Tween-20 (PBS-T), blocked by incubation with PBS containing 1% BSA, then washed with 2 mls per well PBS-T prior to starting the reaction. Reactions were carried out in 100 μL reaction volumes containing 2.7 μM ATP in kinase buffer (50 mM Hepes buffer pH 7.4, 20 mM MgCl2, 0.1 mM MnCl2 and 0.2 mM Na3VO4). Test compounds were reconstituted in 100% DMSO and added to the reaction to give a final DMSO concentration of 5%. Reactions were initiated by the addition 20 ul per well of kinase buffer containing 200-300 ng purified cytoplasmic domain KDR protein (BPS Bioscience, San Diego, Calif.). Following a 15 minute incubation at 30° C., the reactions were washed 2 mls per well PBS-T. 100 μl of a monoclonal anti-phosphotyrosine antibody-peroxidase conjugate diluted 1:10,000 in PBS-T was added to the wells for 30 minutes. Following a 2 mls per well wash with PBS-Tween-20, 100 μl of 0-Phenylenediamine Dihydrochloride in phosphate-citrate buffer, containing urea hydrogen peroxide, was added to the wells for 7-10 minutes as a colorimetric substrate for the peroxidase. The reaction was terminated by the addition of 100 μl of 2.5N H2SO4 to each well and read using a microplate ELISA reader set at 492 nm. IC50 values for compound inhibition were calculated directly from graphs of optical density (arbitrary units) versus compound concentration following subtraction of blank values.

Chain of human GST-PKR (P19525 whole entry): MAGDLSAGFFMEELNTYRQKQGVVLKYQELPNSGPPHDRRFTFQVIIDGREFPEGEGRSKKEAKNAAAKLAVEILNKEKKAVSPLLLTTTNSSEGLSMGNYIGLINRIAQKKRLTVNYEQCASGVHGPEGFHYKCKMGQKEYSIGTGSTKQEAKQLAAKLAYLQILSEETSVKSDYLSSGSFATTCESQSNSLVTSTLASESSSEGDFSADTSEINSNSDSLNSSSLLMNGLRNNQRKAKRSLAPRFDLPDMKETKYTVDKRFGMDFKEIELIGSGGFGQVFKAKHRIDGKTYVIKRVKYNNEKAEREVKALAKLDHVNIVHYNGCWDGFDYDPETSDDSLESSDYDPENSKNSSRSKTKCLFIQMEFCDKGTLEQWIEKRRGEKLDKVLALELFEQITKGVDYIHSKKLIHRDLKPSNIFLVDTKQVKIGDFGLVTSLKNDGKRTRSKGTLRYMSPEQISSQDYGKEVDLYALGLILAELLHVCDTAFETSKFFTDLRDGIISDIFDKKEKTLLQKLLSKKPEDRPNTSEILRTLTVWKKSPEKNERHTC
Chain of VEGFR2 (KDR) (P35968 786-1356): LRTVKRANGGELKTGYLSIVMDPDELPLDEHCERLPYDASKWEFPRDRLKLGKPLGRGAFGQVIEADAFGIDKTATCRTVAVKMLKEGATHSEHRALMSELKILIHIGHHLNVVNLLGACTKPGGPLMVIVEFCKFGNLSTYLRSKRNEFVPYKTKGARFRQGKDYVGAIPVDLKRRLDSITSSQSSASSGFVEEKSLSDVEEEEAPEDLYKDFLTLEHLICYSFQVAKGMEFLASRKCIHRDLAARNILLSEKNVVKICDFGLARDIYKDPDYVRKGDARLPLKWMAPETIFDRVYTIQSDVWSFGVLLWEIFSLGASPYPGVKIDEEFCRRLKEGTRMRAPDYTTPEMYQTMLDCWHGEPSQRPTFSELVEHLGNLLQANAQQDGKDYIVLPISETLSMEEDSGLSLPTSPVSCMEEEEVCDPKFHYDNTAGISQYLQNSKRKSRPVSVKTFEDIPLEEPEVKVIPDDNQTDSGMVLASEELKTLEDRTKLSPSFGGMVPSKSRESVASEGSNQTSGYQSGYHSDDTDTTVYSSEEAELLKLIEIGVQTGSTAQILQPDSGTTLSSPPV
Chain of PDGFRβ (P09619 554-1106): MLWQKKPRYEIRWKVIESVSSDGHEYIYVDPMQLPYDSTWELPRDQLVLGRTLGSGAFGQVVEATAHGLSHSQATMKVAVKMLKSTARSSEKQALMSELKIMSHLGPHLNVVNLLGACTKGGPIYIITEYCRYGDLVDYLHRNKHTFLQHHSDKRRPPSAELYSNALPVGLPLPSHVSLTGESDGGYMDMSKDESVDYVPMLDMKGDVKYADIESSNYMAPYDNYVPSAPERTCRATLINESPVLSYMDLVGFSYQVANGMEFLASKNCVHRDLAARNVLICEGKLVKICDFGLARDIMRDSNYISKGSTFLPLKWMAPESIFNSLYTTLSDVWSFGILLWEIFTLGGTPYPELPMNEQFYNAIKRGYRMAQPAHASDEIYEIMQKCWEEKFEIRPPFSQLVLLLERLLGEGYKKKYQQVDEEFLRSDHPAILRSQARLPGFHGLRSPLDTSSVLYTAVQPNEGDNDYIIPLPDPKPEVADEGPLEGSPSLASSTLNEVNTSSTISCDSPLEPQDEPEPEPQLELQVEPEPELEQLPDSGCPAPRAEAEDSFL

| IC50 (human GST-PKR) | IC50 (PDGFRβ) | IC50 (VEGFR2 (KDR)) | SMILES |
| --- | --- | --- | --- |
| 39 nM |  |  | Nc1ncc(-c2nnn(CCCO)n2)cc1-c1cc2cc(NC(=O)Nc3ccc(Cl)c(C(F)(F)F)c3)ccc2s1 [Example 3, 1-(2-{2-amino-5-[2-(3-hydroxypropyl)-2H-tetrazol-5-yl]pyridin-3-yl}-1-benzothien-5-yl)-3-[4-chloro-3-(trifluoromethyl)phenyl]urea] |
| > 10000 nM | 21 nM | 5 nM | Cc1ccoc1C(=O)Nc1cccc(C#Cc2cncc(-c3nnn(CCCO)n3)c2)c1 [Example 9, N-[3-({5-[2-(3-hydroxypropyl)-2H-tetrazol-5-yl]pyridin-3-yl}ethynyl)phenyl]-3-methyl-2-furamide] |
| > 10000 nM |  | 8 nM | O=C(Nc1ccc(C#Cc2cncc(-c3nnn(CCCO)n3)c2)cc1)Nc1cc(C(F)(F)F)ccc1F [Example 12, 1-[2-fluoro-5-(trifluoromethyl)phenyl]-3-[4-({5-[2-(3-hydroxypropyl)-2H-tetrazol-5-yl]pyridin-3-yl}ethynyl)phenyl]urea] |
| 140 nM |  |  | Nc1ncc(-c2nn[nH]n2)cc1-c1cc2cc(NC(=O)Nc3ccc(Cl)c(C(F)(F)F)c3)ccc2s1 [Example 2, 1-{2-[2-amino-5-(2H-tetrazol-5-yl)pyridin-3-yl]-1-benzothien-5-yl}-3-[4-chloro-3-(trifluoromethyl)phenyl]urea] |
|  |  | 7 nM | Cc1cccc(C(=O)Nc2cccc(C#Cc3cncc(-c4nnn(CCCO)n4)c3)c2)c1 [Example 10, N-[3-({5-[2-(3-hydroxypropyl)-2H-tetrazol-5-yl]pyridin-3-yl}ethynyl)phenyl]-3-methylbenzamide] |
| 558 nM |  |  | Nc1ncc(-c2ncccn2)cc1-c1cc2cc(NC(=O)Nc3ccc(Cl)c(C(F)(F)F)c3)ccc2s1 [Example 13, 1-[2-(2-amino-5-pyrimidin-2-ylpyridin-3-yl)-1-benzothien-5-yl]-3-[4-chloro-3-(trifluoromethyl)phenyl]urea] |
| 158 nM |  |  | Nc1ncc(-c2nnn(CCCO)n2)cc1C#Cc1cccc(NC(=O)Nc2ccc(Cl)c(C(F)(F)F)c2)c1 [Example 11, 1-[3-({2-amino-5-[2-(3-hydroxypropyl)-2H-tetrazol-5-yl]pyridin-3-yl}ethynyl)phenyl]-3-[4-chloro-3-(trifluoromethyl)phenyl]urea] |

The next lines start with the compound.

| SMILES | IC50 (human GST-PKR) | IC50 (PDGFRβ) | IC50 (VEGFR2 (KDR)) |
| --- | --- | --- | --- |
| Nc1ncc(-c2cnccn2)cc1-c1cc2cc(NC(=O)Nc3ccc(Cl)c(C(F)(F)F)c3)ccc2s1 [Example 14, 1-[2-(2-amino-5-pyrazin-2-ylpyridin-3-yl)-1-benzothien-5-yl]-3-[4-chloro-3-(trifluoromethyl)phenyl]urea] | 301 nM |  |  |
| Nc1ncc(-c2nnn(CCCO)n2)cc1-c1cc2cc(NC(=O)Nc3cc(F)cc(C(F)(F)F)c3)ccc2s1 [Example 5, 1-(2-{2-amino-5-[2-(3-hydroxypropyl)-2H-tetrazol-5-yl]pyridin-3-yl}-1-benzothien-5-yl)-3-[3-fluoro-5-(trifluoromethyl)phenyl]urea] | 76 nM |  |  |
| O=C(Nc1ccc(Cl)c(C(F)(F)F)c1)Nc1ccc2sc(-c3cncc(-c4nn[nH]n4)c3)cc2c1 [Example 1, 1-[4-chloro-3-(trifluoromethyl)phenyl]-3-{2-[5-(2H-tetrazol-5-yl)pyridin-3-yl]-1-benzothien-5-yl}urea] | 727 nM |  |  |
| Nc1ncc(-c2nnn(CCCO)n2)cc1-c1cc2cc(NC(=O)Nc3cc(C(F)(F)F)cc(C(F)(F)F)c3)ccc2s1 [Example 6, 1-(2-{2-amino-5-[2-(3-hydroxypropyl)-2H-tetrazol-5-yl]pyridin-3-yl}-1-benzothien-5-yl)-3-[3,5-bis(trifluoromethyl)phenyl]urea] | 66 nM |  |  |
| Nc1ncc(-c2nnn(CCCO)n2)cc1-c1cc2cc(NC(=O)Nc3ccc(F)c(C(F)(F)F)c3)ccc2s1 [Example 4, 1-(2-{2-amino-5-[2-(3-hydroxypropyl)-2H-tetrazol-5-yl]pyridin-3-yl}-1-benzothien-5-yl)-3-[4-fluoro-3-(trifluoromethyl)phenyl]urea] | 99 nM |  |  |
| Nc1ncc(-c2nnn(CCO)n2)cc1-c1cc2cc(NC(=O)Nc3ccc(Cl)c(C(F)(F)F)c3)ccc2s1 [Example 8, 1-(2-{2-amino-5-[2-(2-hydroxyethyl)-2H-tetrazol-5-yl]pyridin-3-yl}-1-benzothien-5-yl)-3-[4-chloro-3-(trifluoromethyl)phenyl]urea] | 82 nM |  |  |
